{"source": "patent US7507739B2", "about": "“6-[(substituted)phenyl]triazolopyrimidines as anticancer agents” (Wyeth, priority 2003, dated 2009)", "key": {"[1]": {"tested_on": "MAP-rich tubulin", "assay": "Tubulin polymerization test with MAP-rich tubulin", "type": "biochemical, bovine", "settings": "0.3 μM compound, 20 min, fold enhancement over control", "outline": "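Bovine brain MAP-rich tubulin (1.3 mg/mL) in PEM buffer pH 6.9 with 1 mM GTP, compounds at 0.3 μM final (0.3% DMSO), 24° for 60 min. Turbidity read at 340 nm each minute, baseline-subtracted; mean A340 at 20 min divided by solvent control gives fold enhancement.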"}, "[2]": {"tested_on": "tubulin heterodimer", "assay": "Competitive binding test, [3H]vinblastine", "parameters": "species or system bovine", "settings": "[3H]vinblastine 100 nM"}, "[3]": {"tested_on": "HeLa cells", "assay": "Cell cycle analysis with HeLa cells", "type": "cell-based, human", "settings": "18 hr"}}}
{"compound": "CN(C)CCCOc1cc(F)c(-c2c(Cl)nc3ncnn3c2NCC(F)(F)F)c(F)c1.Cl", "note": "[Example 4a, 5-Chloro-6-{4-[3-(dimethylamino)propoxy]-2,6-difluorophenyl}-N-(2,2,2-trifluoroethyl)[1,2,4]triazolo[1,5-a]pyrimidin-7-amine Hydrogen chloride Salt]", "values": [{"measurement": "A340 Compound/A340 Control", "setting": "[1]", "result": 8.1}, {"measurement": "[3H]Vinblastine binding, percent of control without competitor, Mean", "setting": "[2]", "result": 15, "unit": "%"}, {"measurement": "Percent in Cell Cycle Phase >4N", "setting": "[3]; 20 nM", "result": 2, "unit": "%"}, {"measurement": "Percent in Cell Cycle Phase Apop", "setting": "[3]; 20 nM", "result": 6, "unit": "%"}, {"measurement": "Percent in Cell Cycle Phase G1", "setting": "[3]; 20 nM", "result": 60, "unit": "%"}, {"measurement": "Percent in Cell Cycle Phase G2/M", "setting": "[3]; 20 nM", "result": 15, "unit": "%"}, {"measurement": "Percent in Cell Cycle Phase S", "setting": "[3]; 20 nM", "result": 17, "unit": "%"}, {"measurement": "Percent in Cell Cycle Phase >4N", "setting": "[3]; 30 nM", "result": 1, "unit": "%"}, {"measurement": "Percent in Cell Cycle Phase Apop", "setting": "[3]; 30 nM", "result": 44, "unit": "%"}, {"measurement": "Percent in Cell Cycle Phase G1", "setting": "[3]; 30 nM", "result": 29, "unit": "%"}, {"measurement": "Percent in Cell Cycle Phase G2/M", "setting": "[3]; 30 nM", "result": 15, "unit": "%"}, {"measurement": "Percent in Cell Cycle Phase S", "setting": "[3]; 30 nM", "result": 12, "unit": "%"}, {"measurement": "Percent in Cell Cycle Phase >4N", "setting": "[3]; 40 nM", "result": 2, "unit": "%"}, {"measurement": "Percent in Cell Cycle Phase Apop", "setting": "[3]; 40 nM", "result": 65, "unit": "%"}, {"measurement": "Percent in Cell Cycle Phase G1", "setting": "[3]; 40 nM", "result": 8, "unit": "%"}, {"measurement": "Percent in Cell Cycle Phase G2/M", "setting": "[3]; 40 nM", "result": 17, "unit": "%"}, {"measurement": "Percent in Cell Cycle Phase S", "setting": "[3]; 40 nM", "result": 8, "unit": "%"}, {"measurement": "Percent in Cell Cycle Phase >4N", "setting": "[3]; 50 nM", "result": 2, "unit": "%"}, {"measurement": "Percent in Cell Cycle Phase Apop", "setting": "[3]; 50 nM", "result": 54, "unit": "%"}, {"measurement": "Percent in Cell Cycle Phase G1", "setting": "[3]; 50 nM", "result": 6, "unit": "%"}, {"measurement": "Percent in Cell Cycle Phase G2/M", "setting": "[3]; 50 nM", "result": 29, "unit": "%"}, {"measurement": "Percent in Cell Cycle Phase S", "setting": "[3]; 50 nM", "result": 9, "unit": "%"}, {"measurement": "Percent in Cell Cycle Phase >4N", "setting": "[3]; 60 nM", "result": 2, "unit": "%"}, {"measurement": "Percent in Cell Cycle Phase Apop", "setting": "[3]; 60 nM", "result": 64, "unit": "%"}, {"measurement": "Percent in Cell Cycle Phase G1", "setting": "[3]; 60 nM", "result": 13, "unit": "%"}, {"measurement": "Percent in Cell Cycle Phase G2/M", "setting": "[3]; 60 nM", "result": 15, "unit": "%"}, {"measurement": "Percent in Cell Cycle Phase S", "setting": "[3]; 60 nM", "result": 8, "unit": "%"}, {"measurement": "Percent in Cell Cycle Phase >4N", "setting": "[3]; 70 nM", "result": 4, "unit": "%"}, {"measurement": "Percent in Cell Cycle Phase Apop", "setting": "[3]; 70 nM", "result": 25, "unit": "%"}, {"measurement": "Percent in Cell Cycle Phase G1", "setting": "[3]; 70 nM", "result": 3, "unit": "%"}, {"measurement": "Percent in Cell Cycle Phase G2/M", "setting": "[3]; 70 nM", "result": 60, "unit": "%"}, {"measurement": "Percent in Cell Cycle Phase S", "setting": "[3]; 70 nM", "result": 8, "unit": "%"}, {"measurement": "Percent in Cell Cycle Phase >4N", "setting": "[3]; 80 nM", "result": 5, "unit": "%"}, {"measurement": "Percent in Cell Cycle Phase Apop", "setting": "[3]; 80 nM", "result": 20, "unit": "%"}, {"measurement": "Percent in Cell Cycle Phase G1", "setting": "[3]; 80 nM", "result": 5, "unit": "%"}, {"measurement": "Percent in Cell Cycle Phase G2/M", "setting": "[3]; 80 nM", "result": 63, "unit": "%"}, {"measurement": "Percent in Cell Cycle Phase S", "setting": "[3]; 80 nM", "result": 7, "unit": "%"}, {"measurement": "Percent in Cell Cycle Phase >4N", "setting": "[3]; 90 nM", "result": 5, "unit": "%"}, {"measurement": "Percent in Cell Cycle Phase Apop", "setting": "[3]; 90 nM", "result": 22, "unit": "%"}, {"measurement": "Percent in Cell Cycle Phase G1", "setting": "[3]; 90 nM", "result": 5, "unit": "%"}, {"measurement": "Percent in Cell Cycle Phase G2/M", "setting": "[3]; 90 nM", "result": 59, "unit": "%"}, {"measurement": "Percent in Cell Cycle Phase S", "setting": "[3]; 90 nM", "result": 10, "unit": "%"}, {"measurement": "Percent in Cell Cycle Phase >4N", "setting": "[3]; 100 nM", "result": 5, "unit": "%"}, {"measurement": "Percent in Cell Cycle Phase Apop", "setting": "[3]; 100 nM", "result": 23, "unit": "%"}, {"measurement": "Percent in Cell Cycle Phase G1", "setting": "[3]; 100 nM", "result": 7, "unit": "%"}, {"measurement": "Percent in Cell Cycle Phase G2/M", "setting": "[3]; 100 nM", "result": 57, "unit": "%"}, {"measurement": "Percent in Cell Cycle Phase S", "setting": "[3]; 100 nM", "result": 9, "unit": "%"}, {"measurement": "Percent in Cell Cycle Phase >4N", "setting": "[3]; 110 nM", "result": 5, "unit": "%"}, {"measurement": "Percent in Cell Cycle Phase Apop", "setting": "[3]; 110 nM", "result": 23, "unit": "%"}, {"measurement": "Percent in Cell Cycle Phase G1", "setting": "[3]; 110 nM", "result": 6, "unit": "%"}, {"measurement": "Percent in Cell Cycle Phase G2/M", "setting": "[3]; 110 nM", "result": 56, "unit": "%"}, {"measurement": "Percent in Cell Cycle Phase S", "setting": "[3]; 110 nM", "result": 10, "unit": "%"}, {"measurement": "Percent in Cell Cycle Phase >4N", "setting": "[3]; 120 nM", "result": 4, "unit": "%"}, {"measurement": "Percent in Cell Cycle Phase Apop", "setting": "[3]; 120 nM", "result": 27, "unit": "%"}, {"measurement": "Percent in Cell Cycle Phase G1", "setting": "[3]; 120 nM", "result": 7, "unit": "%"}, {"measurement": "Percent in Cell Cycle Phase G2/M", "setting": "[3]; 120 nM", "result": 53, "unit": "%"}, {"measurement": "Percent in Cell Cycle Phase S", "setting": "[3]; 120 nM", "result": 10, "unit": "%"}]}
